Experimental data as given in patent publication US12275685B2, “Oligo-benzamide analogs and their use in cancer treatment” (Board of Regents, The University of Texas System, priority 2018, dated 2025).
Entries after “also recorded” stand apart in the source; their conditions may differ. Where two headings read alike, the source gives them in different places.

Key:
MT-ERα [1] = test: MT-ERα protein levels; type: cell-based; settings: over 12-24 h
breast cancer cells = test: Growth inhibition of breast cancer cells; type: cell-based; settings: read-out: IC50, activity against breast cancer cells
Description: In addition, another tris-benzmaide compound TK208 was synthesized and tested against breast cancer and ovarian cancer cell lines (FIGS. 10-15). […] These compounds (e.g., TK41, TK208, TK308 (FIG. 21), TK309 (FIG. 22), TK314, TK315) are extremely potent compounds that inhibit tumor growth and kill breast and ovarian cancer cells and as such, they are superb therapeutic candidates for such diseases.

D538G MT-ERα [2] = test: ERα ChIP, ERX-315; type: cell-based
Description: (§1) FIGS. 66A-D: (FIG. 66A) Effect of ERX-315 on ERa DNA binding on the promoters of 5 canonical ERα-regulated genes with ERa ChIP in MCF-7 expressing D538G MT-ERα in the absence and presence of estradiol.
(§2) Prior studies have shown that MT-ERα drives a canonical ERα transcriptional programme, both in the absence and presence of estradiol. RNA sequencing studies indicate that ERX-315 alters the transcriptional heatmap in MCF-7 and ZR-75 cells expressing D538G and Y537S MT-ERα (FIG. 66B, data shown for MCF-7 cells expressing D538G MT-ERα).

[3] = system: WT- and MT-ERα-driven cell lines (MCF-7, ZR-75); test: Anti-proliferative activity in WT- and MT-ERα-driven cell lines; type: cell-based
[4] = system: MCF-7 expressing mutant D538G; test: Protein synthesis by puromycin labeling, BC cells; type: cell-based; settings: 16 h
[5] = system: cell lines driven by MT-ERα; test: sXBP1 and CHOP RNA expression; settings: three cell lines driven by MT-ERα
[6] = system: BC cells expressing MT-ERα; test: Uncompensated UPR / LC3B activation; type: cell-based
Method: ERX-315 decreases expression of ERα MCF-7 cells with MT-ERα, both the Y537S and D538G mutants (FIG. 67C), around 12-16 h (FIG. 67D). […] In contrast, neither fulvestrant nor GDC-0810 consistently degrade MT-ERa nor induce LC3.

MT-ERα [7] = test: RNA sequencing of MT-ERα transcriptional programme; type: cell-based; settings: MCF-7 and ZR-75 cells expressing D538G and Y537S MT-ERα
Description: as §1, §2

[8] = Pharmacokinetic studies of ERX-315; type: in vivo, mice
Method: At 24 h after oral administration, ERX-315 was still detectable in the plasma at >500 ng/mL. […] Thus, the inventors' initial studies indicate that once a day oral dosing of 10 mg/kg ERX-315 in captisol is sufficient to maintain therapeutic drug levels.

[9] = system: MT-ERα (ZR-75 and MCF-7 cells with MT Y537S ERα) driven xenograft models; test: ERX-315 in MT-ERα BC xenograft models; type: in vivo; settings: for growth of MT-ERα xenografts / mouse liver, uterus, body weight: oral 10 mg/kg; for growth of MT-ERα xenografts: captisol
Method: Following establishment of tumors, mice (n=6/group) were randomized and treated for 5 days/week with either 10 mg/kg/oral of ERX-315 or vehicle.

[10] = system: human mammary epithelial cells (HMEC); test: Activity of ERX-315 in HMEC; type: cell-based
Description: ERX-315. The binding of ERX-315 (structure shown in FIG. 65C) to ERα has been validated for WT ERα LBD using time-resolved FRET (TR-FRET)-ERα Coactivator assay (FIG. 65D: purified MT-ERα LBD is not available). […] In contrast, ERX-314, which has a methyl group in place of the N-terminal fluoride of ERX-315, is modeled to bind less avidly to MT-ERα LBD (predicted docking energy˜[…]). […] ERX-315 had no activity against benign breast epithelial cells, shown for the human mammary epithelial cells (HMEC). In contrast, ERX-314 has dramatically lower potency (IC50˜1500-5000 nM) and serves an internal control for ERX-315. The inventors have performed most of the studies described below with three compounds-ERX-315 as the optimized lead, ERX-11 as the parental compound and ERX-314 as a negative control.

HMEC cells = test: Protein synthesis by puromycin labeling, HMEC; type: cell-based, human
D538G MT-ERα [11] = test: ERE reporter assay, ERX-315; type: cell-based; settings: MCF-7 cells expressing D538G MT-ERα
WT ERα LBD = molecular target: T1, WT ERα LBD (Homo sapiens, UniProt P03372); test: LanthaScreen TR-FRET ERα coactivator assay; type: binding
T1 construct: in the presence of 3.5 nM ER Alpha-LBD (GST); purchased
T1 sequence (P03372 311-547 limits assumed): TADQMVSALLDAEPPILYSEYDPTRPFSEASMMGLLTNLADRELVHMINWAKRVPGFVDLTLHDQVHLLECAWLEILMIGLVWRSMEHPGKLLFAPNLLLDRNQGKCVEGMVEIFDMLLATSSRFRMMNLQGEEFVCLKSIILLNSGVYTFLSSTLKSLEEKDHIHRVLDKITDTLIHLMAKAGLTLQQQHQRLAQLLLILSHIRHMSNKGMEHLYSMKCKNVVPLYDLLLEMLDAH

In the case of CC(C)COc1cc(C(=O)Nc2ccc(C(=O)N[C@H]3CC[C@H](C(=O)Nc4cnc5ccccc5c4)CC3)cc2OCC(C)C)ccc1NC(=O)c1ccc(F)c(OCCO)c1 [TK315], the “protein levels of mutant ERα” value (MT-ERα [1]) is reported as under 10 % basal, the IC50 (breast cancer cells) is reported as 0.01 to 0.05 µM and the “MT-ERα binding to promoters of ERα-regulated genes” value (D538G MT-ERα [2]) is reported as “dramatically decreases MT-ERα binding”. The IC50 [3] was 0.015 to 0.035 µM, the “shutdown of protein synthesis in BC cells” value [4] was “Global shutdown of protein synthesis” and the “expression of sXBP1 and CHOP at the RNA level” value [5] was “significantly enhance”. The “uncompensated UPR leading to LC3B activation and cell death” value [6] was “induced uncompensated UPR”, the MT-ERα transcriptional programme (MT-ERα [7]) was “efficiently blocks the transcriptional programme” and the oral bioavailability ([8]; captisol formulation) was “orally bioavailable”. It also gave a concentration at 0.5 h ([8]; mouse, blood, 0.5 hr, single oral 10 mg/kg in captisol) of 3440 ± 2320 ng/mL, a concentration at 1 h ([8]; mouse, blood, 1 hr, single oral 10 mg/kg in captisol) of 2400 ± 1460 ng/mL and a concentration at 2 h ([8]; mouse, blood, 2 hr, single oral 10 mg/kg in captisol, read-out: Blood) of 1840 ± 1290 ng/mL. It also gave a concentration at 4 h ([8]; mouse, blood, 4 hr, single oral 10 mg/kg in captisol, read-out: Blood) of 16000 ± 394 ng/mL, a concentration at 8 h ([8]; mouse, blood, 8 hr, single oral 10 mg/kg in captisol, read-out: Blood) of 823 ± 123 ng/mL and a concentration at 16 h ([8]; mouse, blood, 16 hr, single oral 10 mg/kg in captisol, read-out: Blood) of 427 ± 197 ng/mL. It also gave a concentration at 24 h ([8]; mouse, plasma, 10 mg/kg, 24 h after oral administration, read-out: plasma level) of over 500 ng/mL, a half-life ([8]; mouse, plasma, 10 mg/kg, oral, captisol) of about 4.5 h and a concentration at 2 h ([8]; mouse, tumor, 10 mg/kg, 2 hr after last dose, MCF7 xenograft, oral 5 days/week for 10 days, read-out: Tumor) of 1430 ± 631 ng/mL. For the same compound, the concentration at 4 h ([8]; mouse, tumor, 10 mg/kg, 4 hr after last dose, MCF7 xenograft, oral 5 days/week for 10 days, read-out: Tumor) was 1010 ± 850 ng/mL, the concentration at 8 h ([8]; mouse, tumor, 10 mg/kg, 8 hr after last dose, MCF7 xenograft, oral 5 days/week for 10 days, read-out: Tumor) was 609 ± 404 ng/mL and the concentration at 16 h ([8]; mouse, tumor, 10 mg/kg, 16 hr after last dose, MCF7 xenograft, oral 5 days/week for 10 days, read-out: Tumor) was 187 ± 238 ng/mL. For the same compound, the concentration at 16 h ([8]; mouse, tumor, oral, 10 mg/kg, 16 h after the last dose, read-out: corresponding tumor concentration) was over 100 nM, the concentration at 16 h ([8]; mouse, tumor, MCF-7 xenograft, 2 weeks daily oral 10 mg/kg, 16 h after the last dose, read-out: tumor tissue level) was over 100 ng/g and the “toxicity at 10 mg/kg” value ([8]; once a day oral 10 mg/kg) was “no significant toxicity”. The “Ki67 proliferation indices in tumors” value ([9]; mouse, in vivo) was “dramatically decreased Ki67 proliferation indices”, the “growth of MT-ERα xenografts” value ([9]; 10 mg/kg) was “potent activity; also recorded: decreased the growth and tumor weight” and the “growth of MT-ERα xenografts” value ([9]; listed as ERX-315, 10 mg/kg) was “decreased the growth; also recorded: potent activity”. For the same compound, the “mouse liver, uterus, body weight” value ([9]; 10 mg/kg) was “no effect on mouse liver or body weight; also recorded: No change in body weight”, the “mouse liver, uterus, body weight” value ([9]; listed as ERX-315, 10 mg/kg) was “no change in body weight; also recorded: no effect on mouse liver, uterus height or body weight” and the immunogenicity ([9]; syngeneic D2A1 tumors, spleen, lymph nodes, kidney, liver) was “not immunogenic”. The “activity against benign breast epithelial cells” value [10] was “no activity”, the “shutdown of protein synthesis in HMEC” value (HMEC cells) was “no significant shutdown of protein synthesis” and the ERE-driven transcription (D538G MT-ERα [11]) was “attenuate transcription”. The “binding to WT ERα LBD” value (WT ERα LBD) was “validated”.
